According to patent US20160038468A1 (priority 2013, published 2016):
In brackets after ≈: the same amount, converted by molar mass. Like-named read-outs stand apart in the source and are kept apart here.

Assays:
Type in all cases: cell-based
Mobiluncus all species = test: Agar dilution MIC (CLSI), Mobiluncus all species; conditions: # tested 40
M. curtisii = test: Agar dilution MIC (CLSI), M. curtisii vaginal isolates; conditions: for Number of strains with indicated MIC: 14 samples; for MIC: read-out: Minimal Inhibitory Concentration (MIC)
Prevotella bivia = test: Agar dilution MIC (CLSI), Prevotella bivia vaginal isolates; conditions: for Number of strains with indicated MIC: 34 samples; for MIC: read-out: Minimal Inhibitory Concentration (MIC)
Prevotella timonensis = test: Agar dilution MIC (CLSI), Prevotella timonensis vaginal isolates; conditions: Hoylesella timonensis; for MIC: read-out: Minimal Inhibitory Concentration (MIC)

CCC[C@@H]1C[C@@H](C(=O)N[C@@H]([C@H]2O[C@H](SC)[C@H](O)[C@@H](O)[C@H]2O)[C@H](C)Cl)N(C)C1 [Clindamycin]
MIC50 (Mobiluncus all species): 0.125 µg/mL (≈ 0.294 µM)
MIC90 (Mobiluncus all species): 0.25 µg/mL (≈ 0.588 µM)
Susceptible (Mobiluncus all species; number (%) of isolates): 38 (95) μg/ml
Resistant (Mobiluncus all species; number (%) of isolates, resistance: rifaximin >32, metronidazole >32, clindamycin >8 μg/ml): 2 (5) μg/ml
Number of strains with indicated MIC (M. curtisii; MIC 0.06 μg/ml): 3
Number of strains with indicated MIC (M. curtisii; MIC 32 μg/ml): 1
Number of strains with indicated MIC (M. curtisii; MIC >[…]): 1
MIC (M. curtisii; individual isolates recovered from the vagina 2009-2012, one line per isolate (id in c0/c1 of the row)): 64 µg/mL (≈ 151 µM)
MIC (M. curtisii): > 128 µg/mL
Number of strains with indicated MIC (Prevotella bivia; MIC 0.03 μg/ml): 8
Number of strains with indicated MIC (Prevotella bivia; MIC 0.06 μg/ml): 1
Number of strains with indicated MIC (Prevotella bivia; MIC >[…]): 25
MIC (Prevotella bivia; Prevotella bivia, isolate 601203 5): 0.03 µg/mL (≈ 0.0706 µM)
MIC (Prevotella bivia; Prevotella bivia, isolate 601212 9): 0.03 µg/mL (≈ 0.0706 µM)
MIC (Prevotella bivia; Prevotella bivia, isolate 601293 22): 0.03 µg/mL (≈ 0.0706 µM)
MIC (Prevotella bivia; Prevotella bivia, isolate 601355 B): 0.06 µg/mL (≈ 0.141 µM)
MIC (Prevotella bivia; Prevotella bivia, isolate 601367 M): 0.03 µg/mL (≈ 0.0706 µM)
MIC (Prevotella bivia; Prevotella bivia, isolate 601388 T): 0.03 µg/mL (≈ 0.0706 µM)
MIC (Prevotella bivia; Prevotella bivia, isolate 601389 J): 0.03 µg/mL (≈ 0.0706 µM)
MIC (Prevotella bivia; Prevotella bivia, isolate 601409 V): 0.03 µg/mL (≈ 0.0706 µM)
MIC (Prevotella bivia; Prevotella bivia, isolate 601410 12): 0.03 µg/mL (≈ 0.0706 µM)
MIC (Prevotella bivia; Prevotella bivia): > 128 µg/mL
MIC50 (Prevotella bivia; Prevotella bivia, # tested 34): > 128 µg/mL
MIC90 (Prevotella bivia; Prevotella bivia, # tested 34): > 128 µg/mL
Minimal Inhibitory Concentration (MIC) (Prevotella bivia; isolate 601096 25): >128 µg/mL
Minimal Inhibitory Concentration (MIC) (Prevotella bivia; isolate 601166 M): >128 µg/mL
Minimal Inhibitory Concentration (MIC) (Prevotella bivia; isolate 601202 21): >128 µg/mL
Minimal Inhibitory Concentration (MIC) (Prevotella bivia; isolate 601213 9A): >128 µg/mL
Minimal Inhibitory Concentration (MIC) (Prevotella bivia; isolate 601214 B): >128 µg/mL
Minimal Inhibitory Concentration (MIC) (Prevotella bivia; isolate 601241 13): >128 µg/mL
Minimal Inhibitory Concentration (MIC) (Prevotella bivia; isolate 601243 15): >128 µg/mL
Minimal Inhibitory Concentration (MIC) (Prevotella bivia; isolate 601255 10): >128 µg/mL
Minimal Inhibitory Concentration (MIC) (Prevotella bivia; isolate 601261 C): >128 µg/mL
Minimal Inhibitory Concentration (MIC) (Prevotella bivia; isolate 601283 20): >128 µg/mL
Minimal Inhibitory Concentration (MIC) (Prevotella bivia; isolate 601285 14): >128 µg/mL
Minimal Inhibitory Concentration (MIC) (Prevotella bivia; isolate 601305 H): >128 µg/mL
Minimal Inhibitory Concentration (MIC) (Prevotella bivia; isolate 601340 31): >128 µg/mL
Minimal Inhibitory Concentration (MIC) (Prevotella bivia; isolate 601374 A1): >128 µg/mL
Minimal Inhibitory Concentration (MIC) (Prevotella bivia; isolate 601378 B): >128 µg/mL
Minimal Inhibitory Concentration (MIC) (Prevotella bivia; isolate 601379 19): >128 µg/mL
Minimal Inhibitory Concentration (MIC) (Prevotella bivia; isolate 601389 10): >128 µg/mL
Minimal Inhibitory Concentration (MIC) (Prevotella bivia; isolate 601392 14): >128 µg/mL
Minimal Inhibitory Concentration (MIC) (Prevotella bivia; isolate 601429 1): >128 µg/mL
Minimal Inhibitory Concentration (MIC) (Prevotella bivia; isolate 601433 19): >128 µg/mL
Minimal Inhibitory Concentration (MIC) (Prevotella bivia; isolate 601449 E): >128 µg/mL
Minimal Inhibitory Concentration (MIC) (Prevotella bivia; isolate 601453 A): >128 µg/mL
Minimal Inhibitory Concentration (MIC) (Prevotella bivia; isolate 601455 D1): >128 µg/mL
Minimal Inhibitory Concentration (MIC) (Prevotella bivia; isolate 601458 16): >128 µg/mL
Susceptible (Prevotella bivia; number (%) of isolates, # tested 34): 9 (26) μg/ml
Resistant (Prevotella bivia; number (%) of isolates, # tested 34, resistance: rifaximin >32, metronidazole >32, clindamycin >8 μg/ml): 25 (74) μg/ml
MIC (Prevotella timonensis; isolate 601080 5): 0.03 µg/mL (≈ 0.0706 µM)
MIC (Prevotella timonensis; isolate 601088 15): 0.03 µg/mL (≈ 0.0706 µM)
MIC (Prevotella timonensis; isolate 601093 24): 0.03 µg/mL (≈ 0.0706 µM)
MIC (Prevotella timonensis; isolate 601097 S): 0.03 µg/mL (≈ 0.0706 µM)
MIC (Prevotella timonensis; isolate 601098 B): 0.03 µg/mL (≈ 0.0706 µM)
MIC (Prevotella timonensis; isolate 601167 13): 0.06 µg/mL (≈ 0.141 µM)
MIC (Prevotella timonensis; isolate 601170 13): 0.03 µg/mL (≈ 0.0706 µM)
MIC (Prevotella timonensis; isolate 601178 19): 0.03 µg/mL (≈ 0.0706 µM)
MIC (Prevotella timonensis; isolate 601194 9B): 0.03 µg/mL (≈ 0.0706 µM)
MIC (Prevotella timonensis; isolate 601245 16): 0.03 µg/mL (≈ 0.0706 µM)
MIC (Prevotella timonensis; isolate 601252 B): 0.03 µg/mL (≈ 0.0706 µM)
MIC (Prevotella timonensis; isolate 601255 17): 0.03 µg/mL (≈ 0.0706 µM)
MIC (Prevotella timonensis; isolate 601266 18): 0.03 µg/mL (≈ 0.0706 µM)
MIC (Prevotella timonensis; isolate 601278 12): 0.06 µg/mL (≈ 0.141 µM)
MIC (Prevotella timonensis; isolate 601281 22): 0.03 µg/mL (≈ 0.0706 µM)
MIC (Prevotella timonensis; isolate 601287 H): 0.03 µg/mL (≈ 0.0706 µM)
MIC (Prevotella timonensis; isolate 601311 B): 0.03 µg/mL (≈ 0.0706 µM)
MIC (Prevotella timonensis; isolate 601388 S): 0.03 µg/mL (≈ 0.0706 µM)
MIC (Prevotella timonensis; isolate 601429 11): 128 µg/mL (≈ 301 µM)
MIC (Prevotella timonensis; isolate 601459 21): 0.03 µg/mL (≈ 0.0706 µM)
MIC (Prevotella timonensis): > 128 µg/mL
MIC50 (Prevotella timonensis; # tested 33): 0.03 µg/mL (≈ 0.0706 µM)
